Data published in the supplement of paper PMC10307832.

Key:
Experiment in all cases: relative viability (nuclei count vs DMSO), 5 days (fraction); higher = more cells survive
[1] = compound: CCN1CCC(CC1)N2C=C(N=N2)CNC3=CC4=C(C(=CN=C4C(=C3)Cl)C#N)NC5=CC(=C(C=C5)F)Cl [KIN001-266] + COc1cc2c(Oc3ccc(NC(=O)C4(C(=O)Nc5ccc(F)cc5)CC4)cc3F)ccnc2cc1OCCCN1CCOCC1 [Foretinib] (partner 0.25 µM)
How it was run: (§1)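 Lung cancer cell lines were pin-tool dosed in 1536-well plates on the day after seeding, with either a lone drug or a fixed anchor-drug dose plus five library-drug doses (not always all listed) in √10 steps. Nuclei were counted on 4× images after 5 days. Relative viability is the ratio of treated-well to vehicle-well nuclei counts, with each value a median of duplicate plates.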

[2] = compound: CCN1CCC(CC1)N2C=C(N=N2)CNC3=CC4=C(C(=CN=C4C(=C3)Cl)C#N)NC5=CC(=C(C=C5)F)Cl [KIN001-266] + NC(=O)Nc1cc(-c2cccc(F)c2)sc1C(=O)N[C@H]1CCCNC1 [AZD7762] (partner 0.2 µM)
How it was run: as §1

[3] = compound: CCN1CCC(CC1)N2C=C(N=N2)CNC3=CC4=C(C(=CN=C4C(=C3)Cl)C#N)NC5=CC(=C(C=C5)F)Cl [KIN001-266] + O=C(CCCCCCC(=O)Nc1ccccc1)NO [Vorinostat] (partner 1 µM)
How it was run: as §1

[4] = compound: CCN1CCC(CC1)N2C=C(N=N2)CNC3=CC4=C(C(=CN=C4C(=C3)Cl)C#N)NC5=CC(=C(C=C5)F)Cl [KIN001-266] + CS(=O)(=O)N1CCN(Cc2cc3nc(-c4cccc5[nH]ncc45)nc(N4CCOCC4)c3s2)CC1 [Pictilisib] (partner 1 µM)
How it was run: as §1

| Cell Line | relative viability ([1]; first compound 0.08 µM) | relative viability ([1]; first compound 0.253 µM) | relative viability ([1]; first compound 0.8 µM) | relative viability ([1]; first compound 2.53 µM) | relative viability ([1]; first compound 8 µM) | relative viability ([2]; first compound 0.08 µM) | relative viability ([2]; first compound 0.253 µM) | relative viability ([2]; first compound 0.8 µM) | relative viability ([2]; first compound 2.53 µM) | relative viability ([2]; first compound 8 µM) | relative viability ([3]; first compound 0.08 µM) | relative viability ([3]; first compound 0.253 µM) | relative viability ([3]; first compound 0.8 µM) | relative viability ([3]; first compound 2.53 µM) | relative viability ([3]; first compound 8 µM) | relative viability ([4]; first compound 0.08 µM) | relative viability ([4]; first compound 0.253 µM) | relative viability ([4]; first compound 0.8 µM) | relative viability ([4]; first compound 2.53 µM) | relative viability ([4]; first compound 8 µM) |
| --- | --- | --- | --- | --- | --- | --- | --- | --- | --- | --- | --- | --- | --- | --- | --- | --- | --- | --- | --- | --- |
| NCI-H647 | 1.22 | 1.22 | 1.36 | 1.16 | 0.97 | 0.432 | 0.366 | 0.568 | 0.431 | 0.434 | 0.562 | 0.631 | 0.921 | 0.761 | 0.508 | 0.461 | 0.405 | 0.491 | 0.282 | 0.414 |
| 201T | 1.07 | 1.11 | 1.13 | 1.12 | 1.14 | 0.66 | 0.629 | 0.577 | 0.54 | 0.681 | 1.02 | 0.969 | 0.876 | 0.988 | 0.934 | 0.768 | 0.746 | 0.662 | 0.64 | 0.721 |
| NCI-H838 | 1.03 | 1.09 | 1.06 | 0.928 | 0.717 | 0.945 | 0.83 | 0.886 | 0.914 | 0.924 | 0.714 | 0.775 | 0.697 | 0.626 | 0.515 | 0.521 | 0.423 | 0.515 | 0.304 | 0.238 |
| PC-14 | 0.907 | 1.04 | 0.743 | 0.979 | 0.503 | 0.365 | 0.405 | 0.315 | 0.355 | 0.3 | 0.627 | 0.803 | 0.158 | 0.577 | 0.0881 | 0.702 | 0.571 | 0.772 | 0.565 | 0.0965 |
| LK-2 | 1.12 | 1.31 | 1.2 | 1.03 | 1.28 | 0.505 | 0.292 | 0.19 | 0.143 | 0.219 | 0.419 | 0.395 | 0.417 | 0.531 | 0.524 | 0.563 | – | 0.537 | – | 0.551 |
| NCI-H1944 | 0.898 | 0.806 | 0.886 | 0.911 | 0.882 | 0.579 | 0.544 | 0.401 | 0.46 | 0.394 | 0.58 | 0.508 | 0.469 | 0.575 | 0.625 | 0.363 | 0.363 | 0.333 | 0.356 | 0.352 |
| HCC-78 | 0.529 | 0.588 | – | 0.575 | 0.527 | 0.654 | 0.603 | 0.469 | 0.619 | 0.694 | 0.582 | 0.36 | 0.419 | 0.493 | 0.453 | 0.234 | 0.193 | 0.174 | 0.253 | 0.259 |
| NCI-H2405 | 1.06 | 1.02 | 1.02 | 1.05 | 0.713 | 0.761 | 0.752 | 0.865 | 0.739 | 0.488 | 1.08 | 1.03 | 1.02 | 1.04 | 0.809 | 0.384 | 0.412 | 0.449 | 0.288 | 0.347 |
| EMC-BAC-2 | 1.13 | 1.09 | 0.972 | 1.03 | 1 | 1.17 | 1.18 | 1.15 | 1.16 | 1.21 | 0.53 | 0.614 | 0.564 | 0.505 | 0.849 | 0.551 | 0.55 | 0.505 | 0.523 | 0.513 |
| NCI-H596 | 0.963 | 0.986 | 0.901 | 0.775 | 0.737 | 1.2 | 0.931 | 1.17 | 0.936 | 1.04 | 0.745 | 0.599 | 0.682 | 0.636 | 0.558 | 0.407 | 0.401 | 0.385 | 0.4 | 0.38 |
| LCLC-97TM1 | 0.983 | 0.914 | 0.903 | 0.888 | 0.909 | 0.339 | – | 0.281 | – | 0.212 | 0.867 | 0.799 | 0.627 | – | 0.614 | 0.198 | 0.264 | 0.192 | 0.16 | 0.215 |
| H3255 | 0.801 | 0.862 | 0.797 | 0.957 | 0.725 | 0.846 | 0.731 | 0.792 | 0.908 | 0.8 | 0.882 | 0.839 | 0.792 | 0.721 | 0.836 | 0.523 | 0.518 | 0.49 | 0.516 | 0.341 |
| LXF-289 | 0.936 | 0.945 | 0.963 | 0.997 | 1.07 | 0.996 | 1.04 | 1.09 | 1.09 | 1.19 | 0.752 | 0.79 | 0.734 | 0.814 | 0.884 | 0.791 | 0.786 | 0.755 | 0.767 | 0.799 |
| LC-2-ad | 0.964 | 1 | 0.904 | 0.972 | 0.787 | 0.8 | 0.867 | 0.777 | 0.863 | 0.636 | 0.644 | 0.721 | 0.655 | 0.788 | 0.704 | 0.582 | 0.336 | 0.466 | 0.317 | 0.543 |
| A-427 | 1.06 | 1.07 | 0.983 | 0.992 | 0.971 | 0.722 | 0.697 | 0.761 | 0.644 | 0.599 | 0.885 | 0.88 | 0.883 | 0.82 | 0.856 | 0.778 | 0.735 | 0.582 | 0.72 | 0.754 |
| NCI-H322M | 0.942 | 0.96 | 1.03 | 0.962 | 0.864 | 0.63 | 0.64 | 0.612 | 0.451 | 0.544 | 0.877 | 0.91 | 0.848 | 0.758 | 0.788 | 0.593 | 0.713 | 0.451 | 0.456 | 0.484 |
